Results on 22 molecules are retold here after patent publication US9144239B2, “Macrocyclic picolinamides as fungicides” (DOW AGROSCIENCES LLC, priority 2012, dated 2015).

Where two headings read alike, the source gives them in different places.

In test [1] the test system is Mycosphaerella graminicola; anamorph: Septoria tritici. Description: Fungicidal activity: leaf blotch of wheat (SEPTTR), wheat seedlings. Type of test: in vivo. To be noted: Zymoseptoria tritici. The method, then:
Evaluation of Fungicidal Activity: Leaf Blotch of Wheat (Mycosphaerella Graminicola; Anamorph: Septoria tritici; Bayer Code […]) Technical grades of materials were dissolved in acetone, which were then mixed with nine volumes of water containing 110 ppm Triton X-100. The fungicide solutions were applied onto wheat seedlings using an automated booth sprayer to run-off. All sprayed plants were allowed to air dry prior to further handling. Wheat plants (variety Yuma) were grown from seed in a greenhouse in 50% mineral soil/50% soil-less Metro mix until the first leaf was fully emerged, with 7-10 seedlings per pot. These plants were inoculated with an aqueous spore suspension of Septoria tritici either prior to or after fungicide treatments. After inoculation the plants were kept in 100% relative humidity (one day in a dark dew chamber followed by two to three days in a lighted dew chamber at 20° C.) to permit spores to germinate and infect the leaf. The plants were then transferred to a greenhouse set at 20° C. for disease to develop. When disease symptoms were fully expressed on the 1st leaves of untreated plants, infection levels were assessed on a scale of 0 to 100 percent disease severity. Percent disease control was calculated using the ratio of disease severity on treated plants relative to untreated plants.

Test [2] has as its system Puccinia triticina; synonym: Puccinia recondita f. sp. tritici. Description: Fungicidal activity: wheat brown rust (PUCCRT), wheat seedlings. The test is classed as in vivo. The method, then: Technical grades of materials were dissolved in acetone, which were then mixed with nine volumes of water containing 110 ppm Triton X-100. The fungicide solutions were applied onto wheat seedlings using an automated booth sprayer to run-off. All sprayed plants were allowed to air dry prior to further handling. Wheat plants (variety Yuma) were grown from seed in a greenhouse in 50% mineral soil/50% soil-less Metro mix until the first leaf was fully emerged, with 7-10 seedlings per pot. These plants were inoculated with an aqueous spore suspension of Septoria tritici either prior to or after fungicide treatments. After inoculation the plants were kept in 100% relative humidity (one day in a dark dew chamber followed by two to three days in a lighted dew chamber at 20° C.) to permit spores to germinate and infect the leaf. The plants were then transferred to a greenhouse set at 20° C. for disease to develop. When disease symptoms were fully expressed on the 1st leaves of untreated plants, infection levels were assessed on a scale of 0 to 100 percent disease severity. Percent disease control was calculated using the ratio of disease severity on treated plants relative to untreated plants. Evaluation of Fungicidal Activity: Wheat Brown Rust (Puccinia […]; Synonym: Puccinia recondita f. Sp. Tritici; Bayer Code PUCCRT) Wheat plants (variety Yuma) were grown from seed in a greenhouse in 50% mineral soil/50% soil-less Metro mix until the first leaf was fully emerged, with 7-10 seedlings per pot. These plants were inoculated with an aqueous spore suspension of Puccinia triticina either prior to or after fungicide treatments. After inoculation the plants were kept in a dark dew room at 22° C. with 100% relative humidity overnight to permit spores to germinate and infect the leaf. The plants were then transferred to a greenhouse set at 24° C. for disease to develop. Fungicide formulation, application and disease assessment followed the procedures as described in the Example A.

The mark [3] stands for this setting: 24 h, 100 ppm, 1 Day Protectant, wheat, read-out: Disease Control SEPTTR 1DP.
Setting [4] is: 24 h, 100 ppm, 1 Day Protectant, wheat, read-out: Disease Control PUCCRT 1DP.
Where [5] appears, read: 72 h, 100 ppm, 3 Day Curative, wheat, read-out: Disease Control PUCCRT 3DC.
[6] abbreviates: 72 h, 100 ppm, 3 Day Curative, wheat, read-out: Disease Control SEPTTR 3DC.
The mark [7] stands for this setting: 24 h, read-out: Disease Control SEPTTR 1DP.
Where [8] appears, read: 72 h, read-out: Disease Control SEPTTR 3DC.
The mark [9] stands for this setting: 24 h, read-out: Disease Control PUCCRT 1DP.
[10] abbreviates: 72 h, read-out: Disease Control PUCCRT 3DC.

`COc1ccnc(C(=O)N[C@@H]2COC[C@H](OCC(C)C)[C@@H](OCC(C)C)[C@@H](COCC(C)C)OC2=O)c1O` [Compound 16]: the pest or weed control at 100 ppm in test [1] (setting [3]), in test [2] (setting [4]) and in test [2] (setting [5]) was 0 to 80% in each case.
For the molecule `COc1ccnc(C(=O)N[C@H]2COC[C@H](OCC(C)C)[C@@H](OCC(C)C)[C@@H](COCC(C)C)OC2=O)c1OCOC(C)=O` [Compound 17], the pest or weed control at 100 ppm in test [1] (setting [3]), in test [2] (setting [4]) and in test [2] (setting [5]) was 0 to 80% throughout.
Consider `COc1ccnc(C(=O)N[C@@H]2COC[C@H](OCC(C)C)[C@@H](OCC(C)C)[C@@H](COCC(C)C)OC2=O)c1OCOC(C)=O` [Compound 18], for which the pest or weed control at 100 ppm in test [1] (setting [3]), in test [2] (setting [4]) and in test [2] (setting [5]) was 0 to 80% throughout.
In the case of `CC[C@@H]1OC(=O)[C@@H](NC(=O)c2nccc(OC)c2OCOC(C)=O)COC[C@H](OCC(C)C)[C@H]1OCC(C)C` [Compound 23], the pest or weed control at 100 ppm in test [1] (setting [3]), in test [1] (setting [6]), in test [2] (setting [4]) and in test [2] (setting [5]) was 80 to 100% throughout.
For `CC[C@H]1OC(=O)[C@H](NC(=O)c2nccc(OC)c2OCOC(C)=O)COC[C@H](OCC(C)C)[C@H]1OCC(C)C` [Compound 24], the pest or weed control at 100 ppm in test [1] (setting [3]), in test [1] (setting [6]), in test [2] (setting [4]) and in test [2] (setting [5]) was 0 to 80% throughout.
Turning to `COc1ccnc(C(=O)N[C@H]2CO[C@@H](C)[C@H](OCc3ccccc3)[C@@H](OCc3ccccc3)[C@H](C)OC2=O)c1O` [Compound 25], the pest or weed control at 100 ppm in test [1] (setting [3]) lay in the range of 80 to 100%; in test [1] (setting [6]), 0 to 80%; in test [2] (setting [4]), 80 to 100%; in test [2] (setting [5]) it was 0 to 80%.
As for `COc1ccnc(C(=O)N[C@H]2CO[C@H](C)[C@H]3OC(C)(C)O[C@@H]3[C@@H](C)OC2=O)c1O` [Compound 27], the pest or weed control at 100 ppm in test [1] (setting [3]), in test [1] (setting [6]), in test [2] (setting [4]) and in test [2] (setting [5]) was 0 to 80% throughout.
On to `COc1ccnc(C(=O)N[C@H]2CO[C@@H](C)C(OCc3ccccc3)C(OCc3ccccc3)[C@H](C)OC2=O)c1OCOC(C)=O` (stereo partly drawn) [Compound 28], for which the pest or weed control at 100 ppm in test [1] (setting [3]), in test [1] (setting [6]), in test [2] (setting [4]) and in test [2] (setting [5]) was 80 to 100% throughout.
Regarding `COc1ccnc(C(=O)N[C@H]2CO[C@H](C)[C@H]3OC(C)(C)O[C@@H]3[C@@H](C)OC2=O)c1OCOC(C)=O` [Compound 29], the pest or weed control at 100 ppm in test [1] (setting [3]), in test [1] (setting [6]), in test [2] (setting [4]) and in test [2] (setting [5]) was 0 to 80% throughout.
For the molecule `COc1ccnc(C(=O)N[C@@H]2COC[C@H](OCc3ccccc3)[C@@H](OCc3ccccc3)[C@@H](C)OC2=O)c1O` [Compound 30, N-((3R,7S,8S,9R)-7,8-bis(benzyloxy)-9-methyl-2-oxo-1,5-dioxonan-3-yl)-3-hydroxy-4-methoxypicolinamide], the pest or weed control at 100 ppm in test [1] (setting [7]), in test [1] (setting [8]), in test [2] (setting [9]) and in test [2] (setting [10]) was 0 to 80% in each case.
As for `COc1ccnc(C(=O)N[C@@H]2COC[C@H](OCc3ccccc3)[C@@H](OCc3ccccc3)[C@@H](C)OC2=O)c1OCOC(C)=O` [Compound 31], the pest or weed control at 100 ppm in test [1] (setting [3]), in test [1] (setting [6]), in test [2] (setting [4]) and in test [2] (setting [5]) was 0 to 80% in each case.
For the molecule `CCCCO[C@H]1COC[C@H](NC(=O)c2nccc(OC)c2OCOC(C)=O)C(=O)O[C@@H](C)[C@@H]1OC` [Compound 37], the pest or weed control at 100 ppm in test [1] (setting [3]) lay within 0 to 80%; in test [1] (setting [6]) it was 0 to 80%; in test [2] (setting [4]), 80 to 100%; in test [2] (setting [5]) it was 80 to 100%.
Consider `COc1ccnc(C(=O)N[C@H]2COC[C@@H](OCc3ccccc3)[C@H](OCc3ccccc3)[C@H](C)OC2=O)c1O` [Compound 38], for which the pest or weed control at 100 ppm in test [1] (setting [3]) lay within 0 to 80%; in test [1] (setting [6]) it was 0 to 80%; in test [2] (setting [4]) it was 80 to 100%; in test [2] (setting [5]) it was 0 to 80%.
As to `COc1ccnc(C(=O)N[C@H]2COC[C@@H](OCc3ccccc3)[C@H](OCc3ccccc3)[C@H](C)OC2=O)c1OCOC(C)=O` [Compound 40], the pest or weed control at 100 ppm in test [1] (setting [3]) fell in the range of 0 to 80%; in test [1] (setting [6]) it was 0 to 80%; in test [2] (setting [4]), 80 to 100%; in test [2] (setting [5]), 0 to 80%.
As for `COc1ccnc(C(=O)N[C@@H]2COC[C@@H](OCc3ccccc3)[C@H](OCc3ccccc3)[C@H](C)OC2=O)c1OCOC(C)=O` [Compound 41], the pest or weed control at 100 ppm in test [1] (setting [3]), in test [1] (setting [6]) and in test [2] (setting [4]) was 0 to 80% throughout.
As to `CCCCO[C@H]1COC[C@H](NC(=O)c2nccc(OC)c2O)C(=O)O[C@@H](C)[C@@H]1O` [Compound 42, N-((3S,7S,8S,9S)-7-butoxy-8-hydroxy-9-methyl-2-oxo-1,5-dioxonan-3-yl)-3-hydroxy-4-methoxypicolinamide], the pest or weed control at 100 ppm in test [1] (setting [3]) was 0 to 80%; in test [1] (setting [6]), 0 to 80%; in test [2] (setting [4]), 80 to 100%; in test [2] (setting [5]), 80 to 100%.
Regarding `CCCCO[C@H]1COC[C@H](NC(=O)c2nccc(OC)c2O)C(=O)O[C@@H](C)[C@@H]1OC(=O)C(C)C` [Compound 46, (3S,6S,7S,8S)-8-butoxy-3-(3-hydroxy-4-methoxypicolinamido)-6-methyl-4-oxo-1,5-dioxonan-7-yl isobutyrate], the pest or weed control at 100 ppm in test [1] (setting [7]), in test [1] (setting [8]), in test [2] (setting [9]) and in test [2] (setting [10]) was 80 to 100% each time.
Consider `COc1ccnc(C(=O)N[C@H]2COC[C@H](OCc3ccccc3)[C@@H](OCc3ccccc3)[C@@H](C)OC2=O)c1O` [Compound 49], for which the pest or weed control at 100 ppm in test [1] (setting [3]), in test [1] (setting [6]), in test [2] (setting [4]) and in test [2] (setting [5]) was 0 to 80% in each case.
On to `CCCCO[C@H]1COC[C@H](NC(=O)c2nccc(OC)c2OCOC(C)=O)C(=O)O[C@@H](C)[C@@H]1OCC(C)C` [Compound 50], for which the pest or weed control at 100 ppm in test [1] (setting [3]), in test [1] (setting [6]), in test [2] (setting [4]) and in test [2] (setting [5]) was 80 to 100% in each case.
For `COc1ccnc(C(=O)N[C@H]2COC[C@H](OCc3ccccc3)[C@@H](OCc3ccccc3)[C@@H](C)OC2=O)c1OCOC(C)=O` [Compound 51], the pest or weed control at 100 ppm in test [1] (setting [3]), in test [1] (setting [6]), in test [2] (setting [4]) and in test [2] (setting [5]) was 0 to 80% each time.
For `COc1ccnc(C(=O)N[C@H]2COC[C@H](OCCCc3ccccc3)[C@@H](OCCCc3ccccc3)[C@H](C)OC2=O)c1O` [Compound 59], the pest or weed control at 100 ppm in test [1] (setting [3]) lay within 80 to 100%; in test [1] (setting [6]) it was 0 to 80%; in test [2] (setting [4]), 80 to 100%; in test [2] (setting [5]), 80 to 100%.
Regarding `CCC(C)(C)O[C@H]1[C@H](C)OC(=O)[C@@H](NC(=O)c2nccc(OC)c2O)COC[C@@H]1OCC(C)C` [Compound 79], the pest or weed control at 100 ppm in test [1] (setting [3]), in test [1] (setting [6]), in test [2] (setting [4]) and in test [2] (setting [5]) was 80 to 100% each time.
